Measured values reported in patent publication US20240199647A1, “ANTI-VIRAL COMPOUNDS” (Aligos Therapeutics, Inc., priority 2022, published 2024).
Where two headings read alike, the source gives them in different places.

Columns and labels:
SARS-Cov-2 3CLpro = SARS-Cov-2 3CLpro (Severe acute respiratory syndrome coronavirus 2, UniProt P0DTD1); assay: biochemical; details: Table A, class symbols
[1] = test system: human beta-coronavirus OC43; assay: OC43 Coronavirus Assay in HeLa cells (antiviral, cytopathic effect, cell-titer-glo); assay type: cell-based; details: Table B, OC43 coronavirus in HeLa cells, read-out: EC50
[2] = test system: SARS-CoV-2 B.1.1.7 lineage; assay: microbe, parasite or virus in culture; assay type: cell-based; details: Table C, SARS-CoV-2 B.1.1.7 in A549-dual_ACE2_TMPRSS2 cells, read-out: A549-dual_ACE2_TMPRSS2 (EC50)
[3] = test system: A549-dual_ACE2_TMPRSS2 cells; details: human
[4] = test system: HeLa human cervical epithelial cells; assay: Cytotoxicity in HeLa cells without addition of OC43 virus (in parallel); details: Table B; HeLa cells without OC43 virus, class symbols
[5] = test system: A549-dual_ACE2_TMPRSS2 cells; assay: Toxicity testing in A549-dual_ACE2_TMPRSS2 cells without virus (MTS); details: read-out: A549-dual_ACE2_TMPRSS2 (CC50); Table C; A549-dual_ACE2_TMPRSS2 cells without virus, class symbols
in vitro = details: human
[6] = Cytotoxicity in HeLa cells without addition of OC43 virus (in parallel); details: human, HeLa cells, without OC43 virus
[7] = Toxicity testing in A549-dual_ACE2_TMPRSS2 cells without virus (MTS); details: human
[8] = Betacoronavirus 1, OC43, HeLa, cells given as a bound
[9] = Betacoronavirus 1, OC43, HeLa, class symbols
[10] = Severe acute respiratory syndrome coronavirus 2, class symbols
[11] = Severe acute respiratory syndrome coronavirus 2, cells given as a bound

| Compound | IC50 (SARS-Cov-2 3CLpro; read-out: SARS-Cov-2 (IC50)) | EC50 [1, 9] | CC50 (in vitro) | EC50 [2, 10] | CC50 at 6 days [6] | further results |
| --- | --- | --- | --- | --- | --- | --- |
| CN(C(=O)[C@H](CC(C)(C)C)NC(=O)C(F)(F)F)[C@@H](CC1CC1)C(=O)N1C[C@@]2(C[C@H]1C#N)Oc1cccnc1NC2=O [Compound 233] | < 20 nM | – | – | – | – | EC50 ([1]; class symbols): 100 to 1000 nM; EC50 ([2]; class symbols): < 100 nM; CC50 [3]: > 1000 nM; CC50 [4]: > 10000 nM |
| Cc1nnn(C(CC2CC2)C(=O)N(C)[C@@H](CC2CC2)C(=O)N2C[C@@]3(C[C@H]2C#N)Oc2cc(F)cc(F)c2NC3=O)c1C (relative stereo) [Compound 118, ((R*)—N—((S)-1-((2R,5'S)-5′-cyano-5,7-difluoro-3-oxo-3,4-dihydrospiro[benzo[b][1,4]oxazine-2,3′-pyrrolidin]-1′-yl)-3-cyclopropyl-1-oxopropan-2-yl)-3-cyclopropyl-2-(4,5-dimethyl-1H-1,2,3-triazol-1-yl)-N-methylpropanamide] | 200 to 2000 nM | – | – | – | – | EC50 ([1]; cells given as a bound): > 10000 nM; EC50 ([2]; cells given as a bound): > 1000 nM; CC50 [5]: > 1000 nM; CC50 [4]: > 10000 nM |
| CC1NC(=O)[C@]2(C[C@@H](C#N)N(C(=O)[C@H](CC3CC3)N(C)C(=O)[C@H](CC3CC3)NC(=O)C(F)(F)F)C2)Oc2ccccc21 (single isomer, unassigned) [Compound 224, (S)—N—((S)-1-((2R,5R*,5'S)-5′-cyano-5-methyl-3-oxo-4,5-dihydro-3H-spiro[benzo[f][1,4]oxazepine-2,3′-pyrrolidin]-1′-yl)-3-cyclopropyl-1-oxopropan-2-yl)-3-cyclopropyl-N-methyl-2-(2,2,2-trifluoroacetamido)propanamide] | < 20 nM | – | – | – | – | EC50 ([1]; class symbols): < 100 nM; CC50 [4]: > 10000 nM |
| C[C@H](NC(=O)C(F)(F)F)C(=O)N(C)[C@@H](CC1CC1)C(=O)N1C[C@]2(C[C@H]1C#N)C(=O)NCC2Oc1ccccc1 (some centres unmarked) [Compound 94] | 20 to 200 nM | – | – | – | – | EC50 [1, 8]: > 10000 nM; EC50 ([2]; class symbols): 100 to 1000 nM; CC50 [3]: > 1000 nM; CC50 [4]: > 10000 nM |
| C[C@H](NC(=O)C(F)(F)F)C(=O)N(C)[C@@H](CC1CC1)C(=O)N1C[C@]2(C[C@H]1C#N)C(=O)NCC2Oc1ccccc1 (some centres unmarked) [Compound 104] | 20 to 200 nM | < 100 nM | > 1000 nM | 100 to 1000 nM | > 10000 nM | – |
| CC(C)C[C@@H](C(=O)N1C[C@@]2(C[C@H]1C#N)Oc1ccncc1NC2=O)N(C)C(=O)c1cc2c(F)cc(F)cc2[nH]1 [Example 3, N—((S)-1-((2R,5'S)-5′-cyano-3-oxo-3,4-dihydrospiro[pyrido[4,3-b][1,4]oxazine-2,3′-pyrrolidin]-1′-yl)-4-methyl-1-oxopentan-2-yl)-4,6-difluoro-N-methyl-1H-indole-2-carboxamide] | 20 to 200 nM | – | > 1000 nM | 1000 to 10000 nM | > 10000 nM | EC50 [1, 8]: > 1000 nM |
| CN(C(=O)[C@H](CC1CC1)NC(=O)C(F)(F)F)[C@@H](CC1CC1)C(=O)N1C[C@@]2(C[C@H]1C#N)CC1(CC1)NC2=O [Compound 60] | < 20 nM | < 100 nM | > 1000 nM | < 100 nM | > 10000 nM | – |
| CN(C(=O)[C@H](CC1CC1)NC(=O)C(F)(F)F)[C@@H](CC1CC1)C(=O)N1C[C@@]2(C[C@H]1C#N)Oc1cc(F)cc(F)c1CNC2=O [Compound 207] | 20 to 200 nM | < 100 nM | > 1000 nM | < 100 nM | > 10000 nM | – |
| CC(C)C[C@@H](C(=O)N1C[C@@]2(C[C@H]1C#N)N=C(C(C)(C)C)NC2=O)N(C)C(=O)[C@H](C)NC(=O)C(F)(F)F [Compound 47] | 20 to 200 nM | 1000 to 10000 nM | > 1000 nM | 100 to 1000 nM | > 10000 nM | – |
| C[C@H](NC(=O)Oc1ccc(F)cc1)C(=O)N(C)[C@@H](CC1CC1)C(=O)N1C[C@@]2(C[C@H]1C#N)Oc1cc(F)cc(F)c1NC2=O [Compound 119, 4-fluorophenyl ((S)-1-(((S)-1-((2R,5'S)-5′-cyano-5,7-difluoro-3-oxo-3,4-dihydrospiro[benzo[b][1,4]oxazine-2,3′-pyrrolidin]-1′-yl)-3-cyclopropyl-1-oxopropan-2-yl)(methyl)amino)-1-oxopropan-2-yl)carbamate] | – | – | – | – | > 10000 nM | IC50 (SARS-Cov-2 3CLpro; SARS-Cov-2 (IC50)): < 20 nM; EC50 ([1]; Betacoronavirus 1, class symbols): 100 to 1000 nM; EC50 [2, 11]: > 1000 nM; CC50 [7]: > 1000 nM |
| CN(C(=O)CCN1CCOCC1)[C@@H](CC1CC1)C(=O)N1C[C@@]2(C[C@H]1C#N)Oc1cc(F)cc(F)c1NC2=O [Compound 132] | 20 to 200 nM | 1000 to 10000 nM | > 1000 nM | 100 to 1000 nM | > 10000 nM | – |
| CN(C(=O)[C@H](CC1CC1)NC(=O)C(F)(F)F)[C@@H](CC(C)(C)C)C(=O)N1C[C@@]2(C[C@H]1C#N)Oc1ccccc1CNC2=O [Compound 164] | < 20 nM | < 100 nM | > 1000 nM | < 100 nM | > 10000 nM | – |
| CC(C)C[C@@H](C(=O)N1C[C@@]2(CC1C#N)Oc1cc(F)cc(F)c1NC2=O)N(C)C(=O)[C@H](C)NC(=O)C(F)(F)F (some centres unmarked) [Compound 51] | < 20 nM | 100 to 1000 nM | > 1000 nM | 100 to 1000 nM | > 10000 nM | – |
| CC(C)C[C@@H](C(=O)N1C[C@@]2(C[C@H]1C#N)Oc1cc(Cl)cc(F)c1NC2=O)N(C)C(=O)[C@H](C)NC(=O)C(F)(F)F [Compound 58] | < 20 nM | 100 to 1000 nM | > 1000 nM | 100 to 1000 nM | > 10000 nM | – |
| CN(C(=O)[C@@H](NC(=O)C(F)(F)F)C1CC1)[C@@H](CC1CC1)C(=O)N1C[C@@]2(C[C@H]1C#N)Oc1cccnc1NC2=O [Compound 179] | < 20 nM | < 100 nM | > 1000 nM | 100 to 1000 nM | > 10000 nM | – |
| CC(C)C[C@@H](C(=O)N1C[C@]2(CCCNC2=O)C[C@H]1C#N)N(C)C(=O)[C@H](C)NC(=O)C(F)(F)F [Compound 11] | 20 to 200 nM | 1000 to 10000 nM | > 1000 nM | 100 to 1000 nM | > 10000 nM | – |
| CN(C(=O)C(C)(C)NC(=O)C(F)(F)F)[C@@H](CC1CC1)C(=O)N1C[C@@]2(C[C@H]1C#N)Oc1cc(F)cc(F)c1NC2=O [Compound 92] | 200 to 2000 nM | < 100 nM | > 1000 nM | < 100 nM | > 10000 nM | – |
| CN(C(=O)[C@@H](NC(=O)C(F)(F)F)C1CC(F)(F)C1)[C@@H](CC1CC1)C(=O)N1C[C@@]2(C[C@H]1C#N)Oc1cccnc1NC2=O [Compound 201] | 20 to 200 nM | 100 to 1000 nM | > 1000 nM | 100 to 1000 nM | > 10000 nM | – |
| CN(C(=O)c1cc2c(F)cc(F)c(F)c2[nH]1)[C@@H](CC1CC1)C(=O)N1C[C@@]2(C[C@H]1C#N)Oc1cccnc1NC2=O [Compound 96] | < 20 nM | 1000 to 10000 nM | > 1000 nM | 100 to 1000 nM | > 10000 nM | – |
| CN(C(=O)[C@H](CC1CC1)NC(=O)C(F)(F)C(F)(F)F)[C@@H](CC1CC1)C(=O)N1C[C@@]2(C[C@H]1C#N)Oc1ncccc1NC2=O [Compound 184] | < 20 nM | < 100 nM | > 1000 nM | < 100 nM | > 10000 nM | – |
| CC(C)C[C@@H](C(=O)N1C[C@@]2(C[C@H]1C#N)Oc1cc(F)c(F)cc1NC2=O)N(C)C(=O)[C@H](C)NC(=O)C(F)(F)F [Compound 48] | < 20 nM | 100 to 1000 nM | > 1000 nM | 100 to 1000 nM | > 10000 nM | – |
| CC(C)C[C@@H](C(=O)N1C[C@@]2(C[C@H]1C#N)Oc1cccnc1NC2=O)N(C)C(=O)[C@H](C)NC(=O)C(F)(F)F [Compound 65] | < 20 nM | 100 to 1000 nM | > 1000 nM | 100 to 1000 nM | > 10000 nM | – |
| Cc1cc2n(n1)[C@@]1(C[C@@H](C#N)N(C(=O)[C@H](CC(C)C)N(C)C(=O)[C@H](C)NC(=O)C(F)(F)F)C1)C(=O)N2 [Example 44, (S)—N—((S)-1-((3R,5'S)-5′-cyano-6-methyl-2-oxo-1,2-dihydrospiro[imidazo[1,2-b]pyrazole-3,3′-pyrrolidin]-1′-yl)-4-methyl-1-oxopentan-2-yl)-N-methyl-2-(2,2,2-trifluoroacetamido)propanamide] | 20 to 200 nM | 100 to 1000 nM | > 1000 nM | – | > 10000 nM | EC50 [2, 11]: > 1000 nM |
